Values quoted from earlier work as cited in patent publication US11446320B1, “Pharmaceutical combination having potent antiviral activity against single-stranded RNA viruses” (priority 2021, dated 2022).

Tests used:
SARS-CoV-2 = settings: mammalian cells, in vitro

Compound	replication of SARS-CoV-2 (SARS-CoV-2)	inhibition of yellow fever virus (yellow fever virus)	inhibition of dengue virus (dengue virus)	effectiveness against arenaviruses (arenaviruses)	effectiveness against filoviruses (filoviruses)	effectiveness against influenza viruses (influenza viruses)	effectiveness against bunyaviruses (bunyaviruses)
ivermectin	slow replication	inhibit	inhibit	–	–	–	–
NC(=O)c1nc(F)c[nH]c1=O [Favipiravir]	–	–	–	effective	effective	effective	effective
NC(=O)c1nc(F)cn([C@@H]2O[C@H](COP(=O)(O)OP(=O)(O)OP(=O)(O)O)[C@@H](O)[C@H]2O)c1=O [favipiravir-RTP]	–	–	–	effective	effective	effective	effective
